Laboratory results taken from patent publication US20090221640A1, “Novel Crystal Modifications” (ASTRAZENECA AB, priority 2006, published 2009).
One block for each molecule: values may come before it.

How the values were obtained:
MMP12 = MMP12 (Homo sapiens, UniProt P39900); conditions: background statement, compound of WO 02/074767; cited from earlier work
[1] = Thermal behaviour on heating (DSC and TGA); type: physicochemical; conditions: below 200° C.; neither solvent loss nor any other thermal event prior to melting
Procedure: The calorimetric response of a test sample to increasing temperature was investigated using a Q1000 Modulated Temperature Differential Scanning Calorimeter (MTDSC) (TA Instruments) using different methods, the main features being:
Normally modulated mode (“heat only”) with a ramp rate of 5° C./min (but also 1 and 20° C./min were used without modulation). The temperature range was from just below ambient to above 200° C.
Approximately 2 mg of the test sample was placed in an aluminium cups with a lid (no crimping).
The gravimetric response of test samples to increasing temperatures was investigated using a Q500 Thermal Gravimetric Analyser (TGA) (TA Instruments) using the following parameters:
Heating rate (normally): 5° C./min
Approximately 2 to 5 mg of the test sample was placed in the cup and heated to just above 200° C.

[2] = Relative thermodynamic stability in suspension experiments (XRPD on precipitates); type: physicochemical
[3] = Solid-state storage stability (chemical and physical); type: physicochemical; conditions: 25° C./desiccated; 25° C./60% RH; 40° C./75% RH; examined after 2, 4, 8 and 12 weeks
Procedure: The solid-state stability of compound (I) Form G was studied under three sets of conditions: at 25° C./desiccated; at 25° C./60% RH; and at 40° C./75% RH. Samples were examined after 2, 4, 8 and 12 weeks and chemical and physical stability was evaluated.

[4] = Humidity sorption by gravimetrical vapour sorption (GVS); type: physicochemical
Procedure: The gravimetric responses of test samples to changes in humidity were investigated using either a SGA 100 (VTI Corporation) or a DVS 2 (Surface Measurement System) Gravimetrical Vapour Sorption (GVS) instrument with the following features: Dry to 90% RH and back in steps of, for example, 10% RH.
Equilibrium condition: <0.01 weight-% per 10 minutes (<0.001 weight-%/min)
Approximately 5 mg of the test sample was placed in the cup and evaluated.

MMP12, sequence (P39900 106-470): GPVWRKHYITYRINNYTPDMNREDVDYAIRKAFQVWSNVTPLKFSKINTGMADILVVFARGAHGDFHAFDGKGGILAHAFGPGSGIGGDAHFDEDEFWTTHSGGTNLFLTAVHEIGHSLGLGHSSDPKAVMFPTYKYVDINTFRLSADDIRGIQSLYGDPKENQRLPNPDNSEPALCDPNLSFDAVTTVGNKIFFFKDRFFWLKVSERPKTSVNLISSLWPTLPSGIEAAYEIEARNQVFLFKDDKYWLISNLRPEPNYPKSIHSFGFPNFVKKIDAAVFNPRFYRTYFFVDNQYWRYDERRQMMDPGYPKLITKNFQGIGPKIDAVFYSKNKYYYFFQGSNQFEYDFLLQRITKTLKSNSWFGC

SMILES: C[C@]1(CS(=O)(=O)N2CCC(Oc3ccc(Cl)cn3)CC2)NC(=O)NC1=O [Compound (I), (5S)-5-[4-(5-chloro-pyridin-2-yloxy)-piperidine-1-sulfonylmethyl]-5-methyl-imidazolidine-2,4-dione]
MMP12 inhibition (in words) (MMP12): potent inhibitor of MMP12

thermal stability (DSC and TGA traces) [1]: thermally stable | relative thermodynamic stability among the seven crystalline modifications ([2]; temperature range investigated (5 to 40° C.)): thermodynamically most stable | solid-state chemical and physical stability [3]: chemically and physically stable | humidity uptake ([4]; at 80% RH, GVS): < 0.05% | hygroscopicity classification ([4]; criteria defined in the European Pharmacopoeia): non-hygroscopic
SMILES: C[C@]1(CS(=O)(=O)N2CCC(Oc3ccc(Cl)cn3)CC2)NC(=O)NC1=O [compound (I) Form G, (S)-5-[4-(5-Chloro-pyridin-2-yloxy)-piperidine-1-sulfonylmethyl]-5-methyl-imidazolidine-2,4-dione Form G]

conversion of crystal form in suspension (XRPD) ([2]; suspensions in organic solvents (ethanol, methanol, 1-propanol, 2-propanol, acetone or ethyl acetate)): complete conversion into Form G
SMILES: C[C@]1(CS(=O)(=O)N2CCC(Oc3ccc(Cl)cn3)CC2)NC(=O)NC1=O [Form A, (5S)-5-[4-(5-chloro-pyridin-2-yloxy)-piperidine-1-sulfonylmethyl]-5-methyl-imidazolidine-2,4-dione]
